From US20050124618A1, “Methods of modulating angiogenesis and cancer cell proliferation” (priority 2003, published 2005) come the findings set out here.

“Also recorded” adds a separate entry of the source.

The subject of data set [1] is U251 human glioma cells spheroids. Briefly: U251 spheroid-induced angiogenesis in the rat cornea pocket. To be noted: 20 μg HET0016 pellet. The data set is classed as in vivo. As to the method: (iii) U251 human glioma cells spheroids: U251 human glioma cells were generously provided by Dr. Stephen Brown (Dept. of Radiation Oncology, Henry Ford Health System, Detroit, Mich.). The cells were maintained in DMEM (Invitrogen) supplemented with 10% heat-inactivated fetal bovine serum, penicillin (10 IU/ml), streptomycin (10 μg/ml) and 10% non-essential amino acids and grown at 37° C. in a humidified incubator containing 5% CO2. U251 spheroids were obtained by a modification of the method of Carlsson and Yuhas (Carlsson J and Yuhas J M, Recent Results Cancer Res 1984, 95:1-23). […] Spheroid diameter was measured using a dissection microscope equipped with a ruler. […]
(iv) Quantitation of corneal neovascularization: Seven days after pellet implantation, the rats were deeply anesthetized as previously described with ketamine and xylazine. […]
Neovascularization was determined by comparing total vessel length in the control and experimental eyes. Vessel length was determined by tracing each vessel from the limbus to the pellet. Total length is the sum of these values in pixels and was determined using conventional image analysis software (Sigma Scan Pro, SPSS, Chicago, Ill.)
For these experiments, we used the human glioblastoma cancer cell line U251, known to be angiogenic (Hsu S C et al., Cancer Res 1996, 56:5684-91). […] Angiogenic responses were assessed 14 days after implantation of the spheroids.

The subject of the next data set is SAPK/JNK. Nature of the data set: Western blot of phospho-SAPK/JNK in U251 cells. The data set is classed as cell-based, human. To be noted: 10 μM HET0016, 24 and 48 hr. As to the method: They were then pelleted by centrifugation at 1,000 g for 5 min at 4° C. Cells were lysed by adding RIPA buffer [20 mM HEPES (pH 7.4), 100 mM NaCl, 1% Nonidet P-40, 0.1% SDS, 1% deoxycholic acid, 10% glycerol, 1 mM EDTA, 1 mM NaVO3, 50 mM NaF, and Protease Inhibitors Set 1 (Calbiochem, La Jolla, Calif.)]. Plates were then scraped and cells collected in a 1.5-ml centrifuge tube, followed by incubation on ice for 30 min. Homogenates of the cell suspension were centrifuged for 10 min at 14,000 g and 4° C.; the pellets were discarded and protein concentrations in the supernatant determined by bicinchoninic acid (BCA) protein assay.
Typically, 20 μg of protein was separated on a 14% Tris-glycine gel (Invitrogen) and electroblotted on a PVDF membrane (Biotrace, Bothell, Wash.). Membranes were blocked for 1 h at room temperature with blocking buffer [0.2% I-Block reagent (Tropix, Bedford, Mass.), 0.1% Tween-20 in […]] before incubation with primary antibodies in blocking buffer (overnight at 4° C.). […] Both phospho-tyrosine (Y102) and phospho-serine/threonine-Pro MPM2 were detected using a 1:2000 dilution of the corresponding antibodies, whereas phospho-p44/p42MAPK and phospho-SAPK/JNK were detected using 1:1000 antibody dilutions. […]
For orientation: In western blotting, separated proteins are transferred to a membrane and probed.

The next data set relates to 9L rat gliosarcoma cells. Nature of the data set: 9L cell proliferation assay (cell counting). The format is cell-based. As to the method: Culture Conditions: 9L rat gliosarcoma cells were purchased from ATC (Gaithersburg, Md.) and were maintained in DMEM (Invitrogen) supplemented with 10% heat-inactivated fetal bovine serum (FBS), penicillin (10 IU/ml), streptomycin (10 μg/ml) and 10% non-essential amino acids (all purchased from Invitrogen). Cells were maintained at 37° C. in a humidified incubator containing 5% CO2. They were grown in medium containing 10% FBS, which was then replaced with serum-free medium (give type and source) where 9L cells grow exponentially.
Cell Proliferation Assays: Proliferation studies were performed with cultures plated at a density that ensured exponential growth for at least 5 days. Growth medium were generally replaced by serum free medium 24 hr after plating. […] The concentration of the ethanol added to the media never exceeded 0.1%. Cells were harvested by exposure to a solution of 0.05% Trypsin/EDTA and counted using a hemocytometer.

For `CCCCc1ccc(N=CNO)c(C)c1` [HET0016, N-hydroxy-N′-(4-butyl-2 methylphenyl) formamidine], the “effect on corneal neovascularization induced by U251 spheroids” value in data set [1] (2 weeks) was “significantly inhibited; also recorded: decreases angiogenesis”. Further, the “decrease of angiogenic responses to U251 spheroids” value in data set [1] (14 days after implantation) is reported as “approximately 70%”. For the same compound, the “phosphorylation of SAPK/JNK” value in the data set with SAPK/JNK was “specifically inhibited phosphorylation”. The “reduction of proliferation of 9L cells” value in the data set on 9L rat gliosarcoma cells (10 μM HET0016, 48 hrs) amounted to 60%. The “effect on EGF-stimulated growth of 9L cells at 24 hr” value in the data set on 9L rat gliosarcoma cells (EGF 200 ng/ml + 10 μM HET0016, 24 hr) was “prevented the effects of EGF on cells growth”. Moreover, the “effect on EGF-stimulated growth of 9L cells at 48 hr” value in the data set with 9L rat gliosarcoma cells (EGF 200 ng/ml + 10 μM HET0016, 48 hr) is listed as “reduced the number of cells”. Further, the “effect on EGF-induced growth of 9L cells” value with 9L rat gliosarcoma cells (EGF 200 ng/ml + HET0016) is listed as “almost abolished”. In the data set on 9L rat gliosarcoma cells (HET0016 10 nM), the “inhibition of 9L cell growth” value is “some degree of inhibition of cell growth was apparent even though the difference from control was not significant”. In the data set on 9L rat gliosarcoma cells (HET0016 100 μM), the “cytotoxicity to 9L cells (cell detachment, dead cells)” value is given as “may have a direct cytotoxic effect” and the “effect on 9L cell number” value is reported as “dramatic reduction in cell number”. Also, in the data set on 9L rat gliosarcoma cells (HET0016 1 and 10 μM, both 24 and 48 hr), the “reduction of 9L cell number” value is 30-40%. The “dose dependence of inhibition of 9L growth” value in the data set on 9L rat gliosarcoma cells (various concentrations of HET0016) was “decreased the proliferation of 9L cells in a dose-related manner; also recorded: produced a dose dependent inhibition”.
